Legend:
Format in all cases: cell-based
MDA-MB-231 cells = test: Tumor cell proliferation (Alamar Blue), MDA-MB-231; conditions: Homo sapiens, MDA-MB-231, 72 h
Experimental: (§1) Human tumor cells (e.g., HCT116 or MDA-MB-231 cells), are seeded in a Costar 96-well plate at 3.0×10^3 cells/well and grown in 150 μl of RPMI complete media (Invitrogen Corporation, Grand Island, N.Y.) containing 10% fetal bovine serum (Hyclone, Logan, Utah) at 37° C. for 16 h in an incubator with 5% CO2. To each well, 50 μl of additional growth media containing 40 μM to 18 nM concentrations of compound with 0.4% DMSO is added. Cells are grown for another 72 h at 37° C. with 5% CO2. 20 μl of Alamar Blue (Trek Diagnostic Systems, Inc., Cleveland, Ohio) reagent is added to each well and incubated for 3 h at 37° C. Plates are read in a SpectraMax Gemini (Molecular Devices, Calif.) with 544 nm excitation and 590 nm emission wavelength. IC50 values are determined by linear regression analysis of log drug concentration versus percent inhibition.

HCT116 cells = test: Tumor cell proliferation (Alamar Blue), HCT116; conditions: Homo sapiens, HCT-116, 72 h
Experimental: as §1

[1] = system: VEGF stimulated Phospho-ERK in HUVEC; test: Growth factor stimulated p-ERK assay in HUVECs (VEGF stimulation, ERK1/2 Bioplex); conditions: Homo sapiens, compound 2 hrs, then 50 ng/ml VEGF 10 min
Experimental: Growth Factor Stimulated p-ERK assay in HUVECs
Exponentially growing human endothelial HUVECs cells (human umbilical vein endothelial cells, cat# CC-2517, Cambrex, Walkersville, Md.) were seeded at twenty five thousand cells/well in 96 well plates in EBM-2 MV medium with growth factors (cat# CC-3202, Cambrex) and grown at 37° C. in 5% CO2. Sixteen hours post-plating, the cells were changed to serum-free medium (RPMI 1640 containing 0.1% BSA (bovine serum albumin) and compounds were added at different concentrations for 2 hrs, after which the cells were stimulated for 10 min with 50 ng/ml of either VEGF (vascular endothelial growth factor, Protein Sciences, Meriden, Conn.) or bFGF (basic fibroblast growth factor cat# PHG0026, Biosource International, Camarillo, Calif.). The rest of the assay was performed per manufacturer indications for the ERK½ Bioplex assay (cat#171-304004, Bio-Rad, Hercules, Calif.). After removing culture medium by aspiration, the cells were quickly rinsed with 100 μl of cell wash buffer A to stop treatment reaction. Eighty microliters of cell lysis buffer were then immediately added to each well of the 96 well plate which was put on ice. Cells in each well were lysed by pipetting up and down 5 times with a multi-channel pipet. The plate was then agitated on a microtiter plate shaker at 300 rpm for 20 min at 4° C. Cellular debris were pelleted by centrifugation at 4500 g for 15 min at 4° C. and the supernatant was collected. Forty five microliters of supernatant was diluted with an equal volume of Bio-Plex phosphoprotein assay Buffer B, The coupled and color coated beads were added into a 96 well filter plate, and the prepared lysates were added. The beads and lysate mixture was incubated at room temperature for 15-18 hrs. The following day, the plate was vacuum-filtered and then washed 3×. Twenty-five microliters of detection antibody solution were added to each well and the plate was then incubated for 30 min at room temperature. The plate was then vaccum-filtered and washed as described previously. Fifty microliters of streptavidin-PE solution was added to each well, the plate was incubated for 10 min at room temperature and then was then vaccum-filtered and washed as described above. One hundred twenty-five microliters of resuspension buffer was added to each well and data were acquired on the Luminex 100 instrument (Bio-Rad).

| SMILES | IC50 (MDA-MB-231 cells; bounds given in μM) [µM] | IC50 (HCT116 cells) [µM] | IC50 (HCT116 cells; bounds given in μM) [µM] | IC50 (MDA-MB-231 cells) [µM] | inhibition at 0.1 µM ([1]; @ 100 nM) [%] | inhibition at 1 µM ([1]; @ 1 μM) [%] |
| --- | --- | --- | --- | --- | --- | --- |
| CC(C)(C)c1cc(NC(=O)Nc2ccc(-c3c(C#N)cn4ncnc(N)c34)cc2)on1 [Example 161, N-[4-(4-amino-6-cyanopyrrolo[2,1-f][1,2,4]triazin-5-yl)phenyl]-N′-(3-tert-butylisoxazol-5-yl)urea] | 1.5 to 5 | > 0.5 | < 1.5 | – | – | – |
| N#CCc1cn2ncnc(N)c2c1-c1ccc(NC(=O)Nc2cc(C(F)(F)F)ccn2)c(F)c1 [Example 255] | < 1.5 | – | 1.5 to 5 | > 0.5 | – | – |
| CNC(=O)c1cn2ncnc(N)c2c1-c1ccc(NC(=O)Nc2cc(C(C)(C)C)ccn2)cc1 [Example 73, 4-amino-5-[4-({[(4-tert-butylpyridin-2-yl)amino]carbonyl}amino)phenyl]-N-methylpyrrolo[2,1-f][1,2,4]triazine-6-carboxamide] | 1.5 to 5 | – | 1.5 to 5 | – | – | – |
| COCc1cn2ncnc(N)c2c1-c1ccc(NC(=O)Nc2cc(C(C)(C)C)nn2-c2ccc(F)cc2)cc1 [Example 217, N-{4-[4-amino-6-(methoxymethyl)pyrrolo[2,1-f][1,2,4]triazin-5-yl]phenyl}-N′-[3-tert-butyl-1-(4-fluorophenyl)-1H-pyrazol-5-yl]urea] | < 1.5 | – | 1.5 to 5 | > 0.5 | – | – |
| Cn1nc(C(C)(C)C)cc1NC(=O)Nc1ccc(-c2c(C(=O)NCC(F)(F)F)cn3ncnc(N)c23)cc1 [Example 94, 4-amino-5-[4-({[(3-tert-butyl-1-methyl-1H-pyrazol-5-yl)amino]carbonyl}amino)phenyl]-N-(2,2,2-trifluoroethyl)pyrrolo[2,1-f][1,2,4]triazine-6-carboxamide] | 1.5 to 5 | – | 5 to 10 | – | – | – |
| Nc1ncnn2cc(C(=O)NCC(F)(F)F)c(-c3ccc(NC(=O)Nc4cc(C(F)(F)F)ccn4)cc3)c12 [Example 93, 4-amino-N-(2,2,2-trifluoroethyl)-5-{4-[({[4-(trifluoromethyl)pyridin-2-yl]amino}carbonyl)amino]phenyl}pyrrolo[2,1-f][1,2,4]triazine-6-carboxamide] | < 1.5 | < 0.5 | – | > 0.5 | < 50 | > 50 |
| N#Cc1cn2ncnc(N)c2c1-c1ccc(NC(=O)Nc2ccnc(C(F)(F)F)c2)cc1 [Example 153, N-[4-(4-amino-6-cyanopyrrolo[2,1-f][1,2,4]triazin-5-yl)phenyl]-N′-[2-(trifluoromethyl)pyridin-4-yl]urea] | 5 to 10 | – | 5 to 10 | – | – | – |
| CC(C)(C)c1ccnc(NC(=O)Nc2ccc(-c3c(C(=O)NC4CC4)cn4ncnc(N)c34)cc2)c1 [Example 76, 4-amino-5-[4-({[(4-tert-butylpyridin-2-yl)amino]carbonyl}amino)phenyl]-N-cyclopropylpyrrolo[2,1-f][1,2,4]triazine-6-carboxamide] | 1.5 to 5 | > 0.5 | < 1.5 | – | – | – |
| COCCOCc1cn2ncnc(N)c2c1-c1ccc(NC(=O)Nc2cc(C(C)(C)C)nn2-c2ccc(F)cc2)cc1 [Example 248, N-(4-{4-amino-6-[(2-methoxyethoxy)methyl]pyrrolo[2,1-f][1,2,4]triazin-5-yl}phenyl)-N′-[3-tert-butyl-1-(4-fluorophenyl)-1H-pyrazol-5-yl]urea] | < 1.5 | – | 1.5 to 5 | > 0.5 | – | – |

Now from value to molecule, other results behind:

| IC50 (MDA-MB-231 cells; bounds given in μM) [µM] | IC50 (HCT116 cells) [µM] | IC50 (HCT116 cells; bounds given in μM) [µM] | IC50 (MDA-MB-231 cells) [µM] | SMILES | inhibition at 0.1 µM ([1]; @ 100 nM) [%] | inhibition at 1 µM ([1]; @ 1 μM) [%] |
| --- | --- | --- | --- | --- | --- | --- |
| < 1.5 | – | 1.5 to 5 | > 0.5 | Nc1ncnn2cc(C(=O)NC3CC3)c(-c3ccc(NC(=O)Nc4cc(C(F)(F)F)ccn4)cc3)c12 [Example 82, 4-amino-N-cyclopropyl-5-{4-[({[4-(trifluoromethyl)pyridin-2-yl]amino}carbonyl)amino]phenyl}pyrrolo[2,1-f][1,2,4]triazine-6-carboxamide] | – | – |
| < 1.5 | > 0.5 | < 1.5 | > 0.5 | N#Cc1cn2ncnc(N)c2c1-c1ccc(NC(=O)Nc2cc(C(F)(F)F)ccc2F)c(F)c1 [Example 256, N-[4-(4-amino-6-cyanopyrrolo[2,1-f][1,2,4]triazin-5-yl)-2-fluorophenyl]-N′-[2-fluoro-5-(trifluoromethyl)phenyl]urea] | – | – |
| < 1.5 | > 0.5 | < 1.5 | > 0.5 | Nc1ncnn2cc(-c3nc(CN4CCOCC4)co3)c(-c3ccc(NC(=O)Nc4cc(C(F)(F)F)ccc4F)cc3)c12 [Example 257, N-(4-{4-amino-6-[4-(morpholin-4-ylmethyl)-1,3-oxazol-2-yl]pyrrolo[2,1-f][1,2,4]triazin-5-yl}phenyl)-N′-[2-fluoro-5-(trifluoromethyl)phenyl]urea] | – | – |
| – | > 0.5 | < 1.5 | < 0.5 | CCNC(=O)c1cn2ncnc(N)c2c1-c1ccc(NC(=O)Nc2cc(C(F)(F)F)ccc2F)cc1 [Example 71, 4-amino-N-ethyl-5-{4-[({[2-fluoro-5-(trifluoromethyl)phenyl]amino}carbonyl)amino]phenyl}pyrrolo[2,1-f][1,2,4]triazine-6-carboxamide] | – | – |
| 1.5 to 5 | < 0.5 | – | – | CCOC(=O)c1coc(-c2cn3ncnc(N)c3c2-c2ccc(NC(=O)Nc3cc(C(F)(F)F)ccc3F)cc2)n1 [Example 237, ethyl 2-(4-amino-5-{4-[({[2-fluoro-5-(trifluoromethyl)phenyl]amino}carbonyl)amino]phenyl}pyrrolo[2,1-f][1,2,4]triazin-6-yl)-1,3-oxazole-4-carboxylate] | – | – |
| 1.5 to 5 | – | 1.5 to 5 | – | Nc1ncnn2cc(CN3CCOCC3)c(-c3ccc(NC(=O)Nc4cc(C(F)(F)F)ccn4)cc3)c12 [Example 225, N-{4-[4-amino-6-(morpholin-4-ylmethyl)pyrrolo[2,1-f][1,2,4]triazin-5-yl]phenyl}-N′-[4-(trifluoromethyl)pyridin-2-yl]urea] | – | – |
| 1.5 to 5 | – | 1.5 to 5 | – | CNC(=O)c1cn2ncnc(N)c2c1-c1ccc(NC(=O)Nc2ccc(F)c(C(F)(F)F)c2)cc1 [Example 74, 4-amino-5-{4-[({[4-fluoro-3-(trifluoromethyl)phenyl]amino}carbonyl)amino]phenyl}-N-methylpyrrolo[2,1-f][1,2,4]triazine-6-carboxamide] | – | – |
| 1.5 to 5 | – | 1.5 to 5 | – | CCOC(=O)c1coc(-c2cn3ncnc(N)c3c2-c2ccc(NC(=O)Nc3cc(C(F)(F)F)ccn3)cc2)n1 [Example 232, ethyl 2-(4-amino-5-{4-[({[4-(trifluoromethyl)pyridin-2-yl]amino}carbonyl)amino]phenyl}pyrrolo[2,1-f][1,2,4]triazin-6-yl)-1,3-oxazole-4-carboxylate] | – | – |
| 1.5 to 5 | > 0.5 | < 1.5 | – | Nc1ncnn2cc(C(=O)NC3CC3)c(-c3ccc(NC(=O)Nc4cc(C(F)(F)F)ccc4F)cc3)c12 [Example 69, 4-amino-N-cyclopropyl-5-{4-[({[2-fluoro-5-(trifluoromethyl)phenyl]amino}carbonyl)amino]phenyl}pyrrolo[2,1-f][1,2,4]triazine-6-carboxamide] | – | – |

Reference: patent US7563791B2, “Pyrrolotriazine derivatives useful for treating hyper-proliferative disorders and diseases associated with angiogenesis” (Bayer Pharmaceuticals Corporation, priority 2004, dated 2009)
